Data from US8697687B2, “Treating diseases mediated by blockade of the epithelial sodium channel with pyrazine-2-carboxamide derivatives” (Novartis AG, priority 2007, dated 2014).
Where a name gives a salt, the structure may show the parent alone.

Molecular target: T1, epithelial sodium channel (ENaC) (Homo sapiens, UniProt P37088+P51168+P51170)
T1 construct: host or cells: primary Human Bronchial Epithelial cells (HBECs), air-liquid interface culture
T1 sequence (P37088 1-669): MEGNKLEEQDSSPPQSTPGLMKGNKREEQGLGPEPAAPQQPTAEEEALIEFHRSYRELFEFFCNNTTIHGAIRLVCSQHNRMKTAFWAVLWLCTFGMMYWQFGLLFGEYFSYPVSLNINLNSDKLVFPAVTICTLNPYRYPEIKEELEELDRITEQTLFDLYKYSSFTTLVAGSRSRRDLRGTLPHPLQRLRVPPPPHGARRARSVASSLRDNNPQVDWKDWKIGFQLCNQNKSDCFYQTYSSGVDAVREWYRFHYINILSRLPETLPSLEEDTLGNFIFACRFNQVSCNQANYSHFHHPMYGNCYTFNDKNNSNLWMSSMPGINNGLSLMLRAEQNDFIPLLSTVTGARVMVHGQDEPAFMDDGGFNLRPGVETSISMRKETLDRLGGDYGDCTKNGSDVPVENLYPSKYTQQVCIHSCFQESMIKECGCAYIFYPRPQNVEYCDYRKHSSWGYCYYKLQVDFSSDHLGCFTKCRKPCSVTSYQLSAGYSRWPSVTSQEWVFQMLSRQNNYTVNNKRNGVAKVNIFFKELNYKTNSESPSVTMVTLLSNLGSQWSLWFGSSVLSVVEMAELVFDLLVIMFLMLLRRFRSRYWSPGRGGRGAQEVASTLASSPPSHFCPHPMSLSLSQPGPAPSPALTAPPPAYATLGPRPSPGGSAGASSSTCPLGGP
T1 sequence (P51168 1-640): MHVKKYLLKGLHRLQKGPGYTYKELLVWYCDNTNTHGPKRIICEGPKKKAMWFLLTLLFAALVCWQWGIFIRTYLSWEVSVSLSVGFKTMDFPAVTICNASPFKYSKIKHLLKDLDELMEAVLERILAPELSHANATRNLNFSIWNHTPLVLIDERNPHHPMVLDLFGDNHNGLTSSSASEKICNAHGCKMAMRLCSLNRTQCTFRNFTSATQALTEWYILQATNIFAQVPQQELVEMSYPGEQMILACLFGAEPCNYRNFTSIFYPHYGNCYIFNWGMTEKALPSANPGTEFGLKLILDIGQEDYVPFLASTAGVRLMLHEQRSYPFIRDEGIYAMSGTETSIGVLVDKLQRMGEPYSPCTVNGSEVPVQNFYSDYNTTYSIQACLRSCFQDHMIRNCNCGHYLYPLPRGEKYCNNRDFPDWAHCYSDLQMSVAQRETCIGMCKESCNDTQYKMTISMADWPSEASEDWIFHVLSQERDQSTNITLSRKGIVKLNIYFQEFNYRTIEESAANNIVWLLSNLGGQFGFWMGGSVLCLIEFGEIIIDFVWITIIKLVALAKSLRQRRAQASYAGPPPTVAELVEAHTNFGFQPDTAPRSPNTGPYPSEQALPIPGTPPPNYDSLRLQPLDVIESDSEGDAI
T1 sequence (P51170 1-649): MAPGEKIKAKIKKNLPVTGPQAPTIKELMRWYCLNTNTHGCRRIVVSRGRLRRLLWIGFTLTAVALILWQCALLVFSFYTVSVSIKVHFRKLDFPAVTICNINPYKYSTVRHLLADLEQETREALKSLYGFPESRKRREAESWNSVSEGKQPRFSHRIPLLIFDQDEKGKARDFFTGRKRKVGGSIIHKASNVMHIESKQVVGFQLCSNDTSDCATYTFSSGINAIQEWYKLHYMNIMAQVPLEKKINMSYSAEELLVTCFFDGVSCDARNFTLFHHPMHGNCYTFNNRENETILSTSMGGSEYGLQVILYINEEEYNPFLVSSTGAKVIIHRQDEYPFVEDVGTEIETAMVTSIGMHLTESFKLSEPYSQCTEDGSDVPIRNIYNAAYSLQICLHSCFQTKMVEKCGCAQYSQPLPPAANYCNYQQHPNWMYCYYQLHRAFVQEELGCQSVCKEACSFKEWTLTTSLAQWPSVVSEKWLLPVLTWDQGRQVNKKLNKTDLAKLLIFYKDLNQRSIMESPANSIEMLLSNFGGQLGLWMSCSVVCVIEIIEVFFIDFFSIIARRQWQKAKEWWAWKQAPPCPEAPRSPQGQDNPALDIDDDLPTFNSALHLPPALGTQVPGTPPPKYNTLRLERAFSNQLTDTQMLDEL
Experiment: Short circuit current (ISC) measurements in Human Bronchial Epithelial cells, inhibition of amiloride-sensitive ISC
Assay type: cell-based
Conditions: inhibition of the amiloride-sensitive ISC; Human Bronchial Epithelial cells (HBECs) at air-liquid interface; compound added to apical chamber; read-out: IC50
Experimental: Compounds of formula (I) and their pharmaceutically acceptable salts, hereinafter referred to alternatively as “agents of the invention”, are useful as pharmaceuticals. In particular, the compounds have good ENaC blocker activity and may be tested in the following assays.
Human Bronchial Epithelial cells (HBECs) (Cambrex) were cultured under air-liquid interface conditions to provide a well differentiated mucociliary phenotype.
HBECs were cultured using a modification of the method described by Gray and colleagues (Gray et al., 1996). Cells were seeded in plastic T-162 flasks and were grown in bronchial epithelial cell growth medium (BEGM; Cambrex) supplemented with bovine pituitary extract (52 μg/mL), hydrocortisone (0.5 μg/mL), human recombinant epidermal growth factor (0.5 ng/mL), epinephrine (0.5 μg/mL), transferrin (10 μg/mL), insulin (5 μg/mL), retinoic acid (0.1 μg/mL), triiodothyronine ([…]), gentamycin (50 μg/mL) and amphotericin B (50 ng/mL). Medium was changed every 48 hours until cells were 90% confluent. Cells were then passaged and seeded (8.25×10^5 cells/insert) on polycarbonate Snapwell inserts (Costar) in differentiation media containing 50% DMEM in BEGM with the same supplements as above but without triiodothyronine and a final retinoic acid concentration of 50 nM (all-trans retinoic acid). Cells were maintained submerged for the first 7 days in culture, after which time they were exposed to an apical air interface for the remainder of the culture period. At this time, media was changed to DMEM:F12 media containing 2% v/v Ultroser G for the remainder of culture. Amphotericin B was removed from all media 3 feeds prior to use in the Using Chambers. Cells were used between days 7 and 21 after establishment of the apical-air interface. At all stages of culture, cells were maintained at 37° C. in 5% CO2 in an air incubator.
Short Circuit Current (ISC) Measurements
Snapwell inserts were mounted in Vertical Diffusion Chambers (Costar) and were bathed with continuously gassed Ringer solution (5% CO2 in O2; pH 7.4) maintained at 37° C. containing (in mM): 120 NaCl, 25 NaHCO3, 3.3 KH2PO4, 0.8 K2HPO4, 1.2 CaCl2, 1.2 MgCl2, and 10 glucose. The solution osmolarity was between 280 and 300 mOsmol/kg H2O for all physiological salt solutions used. Cells were voltage clamped to 0 mV (model EVC4000; WPI). RT was measured by applying a 1- or 2-mV pulse at 30-s intervals and calculating RT by Ohm's law. Data were recorded using a PowerLab workstation (ADInstruments).
Test compounds were prepared as a 10 mM stock solution in DMSO (95%). Serial 3-fold dilutions were freshly prepared in an appropriate vehicle (distilled H2O or Ringers solution). The initial concentration was added to the apical chamber as a 1000× concentrate in 5 μL, resulting in a final 1× concentration the 5 mL volume of the Ussing chamber. Subsequent additions of compound were added in a 3.3 μL volume of the 1000× serially diluted stock solution. At the completion of the concentration-response experiment, amiloride (10 μM) was added into the apical chamber to enable the total amiloride-sensitive current to be measured. An amiloride control IC50 was established at the start of each experiment.
Results are expressed as the mean % inhibition of the amiloride-sensitive ISC. Concentration-response curves were plotted and IC50 values generated using GraphPad Prism 3.02. Cell inserts were typically run in duplicate and the IC50 calculated on the mean % inhibition data.

Row | SMILES | IC50
1 | Nc1nc(N)c(C(=O)/N=C2\NCC3(CCN(C(=O)CCc4nc(-c5ccc(Cl)cc5)no4)CC3)N2)nc1Cl [Example 146, 3,5-Diamino-6-chloro-pyrazine-2-carboxylic acid [8-{3-[3-(4-chlorophenyl)-[1,2,4]oxadiazol-5-yl]-propionyl}-1,3,8-triaza-spiro[4.5]dec-(2E)-ylidene-amide trifluoroacetate] | 6 nM
2 | Cc1[nH]c2ccc(CC(=O)N3CCC4(CC3)CN/C(=N\C(=O)c3nc(Cl)c(N)nc3N)N4)cc2c1C [Example 48, 3,5-Diamino-6-chloro-pyrazine-2-carboxylic acid [8-[2-(2,3-dimethyl-1H-indol-5-yl)-acetyl]-1,3,8-triaza-spiro[4.5]dec-(2E)-ylidene]-amide] | 16.5 nM
3 | Nc1nc(N)c(C(=O)/N=C2/NC[C@@H](CCCc3ccc(OCC(=O)N4CCOCC4)cc3)N2)nc1Cl [Example 23, 3,5-Diamino-6-chloro-pyrazine-2-carboxylic acid [(R)-4-{3-[4-(2-morpholin-4-yl-2-oxo-ethoxy)-phenyl]-propyl}-imidazolidin-(2Z)-ylidene]-amide] | 33.5 nM
4 | CC(=O)N[C@@H](Cc1ccc(OC(C)C)cc1)C(=O)N1CCC2(CC1)CN/C(=N\C(=O)c1nc(Cl)c(N)nc1N)N2 [Example 185, 3,5-Diamino-6-chloro-pyrazine-2-carboxylic acid [8-[(S)-2-acetylamino-3-(4-isopropoxy-phenyl)-propionyl]-1,3,8-triaza-spiro[4.5]dec-(2E)-ylidene]-amide] | 62 nM
5 | CC(C)NC(=O)Nc1ccc(C(=O)N2CCC3(CC2)CN/C(=N\C(=O)c2nc(Cl)c(N)nc2N)N3)cc1 [Example 64, 3,5-Diamino-6-chloro-pyrazine-2-carboxylic acid [8-[4-(3-isopropyl-ureido)-benzoyl]-1,3,8-triaza-spiro[4.5]dec-(2E)-ylidene]-amide] | 25.5 nM
6 | CC(C)OCCCNS(=O)(=O)c1cccc(C(=O)N2CCC3(CC2)CN/C(=N\C(=O)c2nc(Cl)c(N)nc2N)N3)c1 [Example 41, 3,5-Diamino-6-chloro-pyrazine-2-carboxylic acid [8-[3-(3-isopropoxy-propylsulfamoyl)-benzoyl]-1,3,8-triaza-spiro[4.5]dec-(2E)-ylidene]-amide] | 9.5 nM
7 | COc1cc(OC)nc(COc2ccc(C(=O)N3CCC4(CC3)CN/C(=N\C(=O)c3nc(Cl)c(N)nc3N)N4)cc2)n1 [Example 61, 3,5-Diamino-6-chloro-pyrazine-2-carboxylic acid [8-[4-(4,6-dimethoxy-pyrimidin-2-ylmethoxy)-benzoyl]-1,3,8-triaza-spiro[4.5]dec-(2E)-ylidene]-amide] | 346 nM
8 | CC(C)(C)OC(=O)COc1ccc(CCC(=O)N2CCC3(CC2)CN/C(=N\C(=O)c2nc(Cl)c(N)nc2N)N3)cc1 [Example 71, [4-(3-{2-[(E)-3,5-Diamino-6-chloro-pyrazine-2-carbonylimino]-1,3,8-triaza-spiro[4.5]dec-8-yl}-3-oxo-propyl)-phenoxy]-acetic acid tert-butyl] | 42 nM

Other lines, results leading:

Row | IC50 | SMILES
9 | 65 nM | Nc1nc(N)c(C(=O)/N=C2/NC[C@H](CCCCNC(=O)OCc3ccccc3)N2)nc1Cl [Example 5, (4-{(S)-2-[(E)-3,5-Diamino-6-chloro-pyrazine-2-carbonylimino]-imidazolidin-4-yl}-butyl)-carbamic acid benzyl ester]
10 | 88.5 nM | CCN(CC)C(=O)Cn1ccc2c(C(=O)N3CCC4(CC3)CN/C(=N\C(=O)c3nc(Cl)c(N)nc3N)N4)cccc21 [Example 91, 3,5-Diamino-6-chloro-pyrazine-2-carboxylic acid [8-(1-diethylcarbamoylmethyl-1H-indole-4-carbonyl)-1,3,8-triaza-spiro[4.5]dec-(2E)-ylidene]-amide]
11 | 39.5 nM | CC(C)NC(=O)Nc1ccc(C(=O)N2CCC3(CC2)CN/C(=N\C(=O)c2nc(Cl)c(N)nc2N)N3)cn1 [Example 65, 3,5-Diamino-6-chloro-pyrazine-2-carboxylic acid [8-[6-(3-isopropyl-ureido)-pyridine-3-carbonyl]-1,3,8-triaza-spiro[4.5]dec-(2E)-ylidene]-amide]
12 | 364 nM | Cn1ccc2cc(S(=O)(=O)N3CCC4(CC3)CN/C(=N\C(=O)c3nc(Cl)c(N)nc3N)N4)ccc21 [Example 235, 3,5-Diamino-6-chloro-pyrazine-2-carboxylic acid [8-(1-methyl-1H-indole-5-sulfonyl)-1,3,8-triaza-spiro[4.5]dec-(2E)-ylidene]-amide]
13 | 42.6 nM | Nc1nc(N)c(C(=O)/N=C2\NCC3(CCN(C(=O)C4CC(=O)N(CCCn5cccc5)C4)CC3)N2)nc1Cl (stereo not shown) [Example 45, 3,5-Diamino-6-chloro-pyrazine-2-carboxylic acid [8-[5-oxo-1-(3-pyrrol-1-yl-propyl)-pyrrolidine-3-carbonyl]-1,3,8-triaza-spiro[4.5]dec-(2E)-ylidene]-amide]
